Where two headings read alike, the source gives them in different places. Marks after values point to notes of the source that are not given here. Where no end group is shown, it is not given here. mPEG‑SC20k = methoxy polyethylene glycol-succinimidyl-carbonate, 20000 Da
Tests used:
[1] = test system: human testicular cancer 5637 xenograft tumors; experiment: Tumor growth inhibition, 5637 xenograft; details: for Rate of inhibiting tumors / Tumor weight: Once 3 days
Experimental: Human testicular cancer 5637 cell lines in logarithmic growth phase were picked, and made into 5×10^7/ml cell suspension of under sterile conditions, and then 0.1 ml suspension was inoculated subcutaneously at the right armpit of nude mice. Tumor diameter was measured with a vernier caliper. The animals which had tumors with a size of 100-200 mm^3 were randomly divided into groups. The effect of polypeptide on anti-tumor was dynamically observed through the method of measuring tumor diameter. The times of measuring tumor diameter were once 2 days, and meantime, weighed mice. The mice in experimental group were infused polypeptide through tail vein. […] After administration, all mice were sacrificed. Stripped the tumors and weighed.

[2] = test system: human gallbladder cancer GBC-SD xenograft tumors; experiment: Tumor growth inhibition, GBC-SD xenograft; details: for Rate of inhibiting tumors / Tumor weight: Once 3 day
Experimental: Human gallbladder cancer GBC-SD cell lines in logarithmic growth phase were picked and made into 5×10^7/ml cell suspension of under sterile conditions, and then 0.1 ml suspension was inoculated subcutaneously at the right armpit of nude mice. Tumor diameter was measured with a vernier caliper. The animals which had tumors with a size of 100-200 mm^3 were randomly divided into groups. The effect of polypeptide on anti-tumor was dynamically observed through the method of measuring tumor diameter. The times of measuring tumor diameter were once 2 days, and meantime, weighed mice. The mice in experimental group were infused polypeptide through tail vein. The mice in the placebo group were injected saline with the same volume, once 1 day; Taxol group: 10 mg/kg, once 1 week; Endostar group: 2.5 mg/kg, once 1 day; The groups of high, intermediate and low polypeptide: 6, 3, 1.5 mg/kg, respectively, once 1 day. After administration, all mice were sacrificed. Stripped the tumors and weighed.

[3] = test system: sarcoma HT-1080 xenograft tumors; experiment: Tumor growth inhibition, HT-1080 xenograft; details: 36.7 mg/kg
Experimental: Tumor diameter was measured with a vernier caliper. […] After administration, all mice were sacrificed. Stripped the tumors and weighed.

[4] = test system: human prostate cancer DU-145 xenograft tumors; experiment: Tumor growth inhibition, DU-145 xenograft; details: for Rate of inhibiting tumors / Tumor weight: Once 3 days
Experimental: Human prostate cancer DU-145 cell lines in logarithmic growth phase were picked, and made into 5×10^7/ml cell suspension of under sterile conditions, and then 0.1 ml suspension was inoculated subcutaneously at the right armpit of nude mice. Tumor diameter was measured with a vernier caliper. The animals which had tumors with a size of 100-200 mm^3 were randomly divided into groups. The effect of polypeptide on anti-tumor was dynamically observed through the method of measuring tumor diameter. The times of measuring tumor diameter were once 2 days, and meantime, weighed mice. The mice in experimental group were infused polypeptide through tail vein. The mice in the placebo group were injected saline with the same volume, once 1 day; Cisplatin group: 10 mg/kg, once 1 week; Endostar group: 2.5 mg/kg, once 1 day; The groups of high, intermediate and low polypeptide: 6, 3, 1.5 mg/kg, respectively, once 1 day. After administration, all mice were sacrificed. Stripped the tumors and weighed.

[5] = test system: human esophageal cancer Ec109 xenograft tumors; type: in vivo, nude mice; details: for Rate of inhibiting tumors / Tumor weight: Once 3 days
Experimental: Tumor diameter was measured with a vernier caliper. […] Tumor volume formula: […]
a, b respectively represent the length and width. […] The formula is as follows: […]
TRTV: Treatment Group RTV; CRTV: Negative Control Group RTV

integrin α5β1 = biological target: T1, integrin α5β1 (Homo sapiens, UniProt P05556+P08648); experiment: Combination with targets through flow cytometry (FITC labeled polypeptide, function-blocking antibody); type: binding; details: Bel-7402 and MCF-7 cells, 2 mg/ml, FIG. 1
T1 construct: Bel-7402 tumor cells and MCF-7 fusion cultured to 80%; endogenous in cells; host or cells: Bel-7402 and MCF-7 tumor cells
T1 sequence (P08648 42-894 limits assumed): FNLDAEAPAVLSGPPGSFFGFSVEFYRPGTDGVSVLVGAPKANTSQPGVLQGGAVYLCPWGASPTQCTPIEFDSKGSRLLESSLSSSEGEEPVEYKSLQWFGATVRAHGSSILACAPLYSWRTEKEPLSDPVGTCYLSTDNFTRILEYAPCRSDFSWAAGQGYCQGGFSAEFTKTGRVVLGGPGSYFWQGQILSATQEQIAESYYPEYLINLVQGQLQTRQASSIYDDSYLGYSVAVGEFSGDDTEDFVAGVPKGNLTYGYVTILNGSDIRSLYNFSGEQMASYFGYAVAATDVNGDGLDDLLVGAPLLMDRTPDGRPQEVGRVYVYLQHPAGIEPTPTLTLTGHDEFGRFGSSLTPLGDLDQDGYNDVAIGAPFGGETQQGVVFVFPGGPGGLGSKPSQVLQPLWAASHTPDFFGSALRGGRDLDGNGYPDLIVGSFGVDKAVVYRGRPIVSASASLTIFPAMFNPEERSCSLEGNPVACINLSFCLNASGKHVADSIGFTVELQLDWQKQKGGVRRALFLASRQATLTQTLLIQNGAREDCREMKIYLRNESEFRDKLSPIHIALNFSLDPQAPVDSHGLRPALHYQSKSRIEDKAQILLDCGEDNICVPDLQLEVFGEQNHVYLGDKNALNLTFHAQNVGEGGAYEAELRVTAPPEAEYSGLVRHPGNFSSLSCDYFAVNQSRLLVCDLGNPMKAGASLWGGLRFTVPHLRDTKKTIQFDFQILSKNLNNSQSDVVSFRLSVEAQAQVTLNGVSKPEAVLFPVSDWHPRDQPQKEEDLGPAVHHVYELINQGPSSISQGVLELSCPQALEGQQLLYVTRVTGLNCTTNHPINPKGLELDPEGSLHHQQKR
T1 sequence (P08648 895-1049 partner limits assumed): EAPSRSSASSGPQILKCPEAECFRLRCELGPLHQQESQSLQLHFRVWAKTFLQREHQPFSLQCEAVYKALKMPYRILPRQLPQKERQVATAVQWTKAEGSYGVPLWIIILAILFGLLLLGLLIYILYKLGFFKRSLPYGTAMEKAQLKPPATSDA
T1 sequence (P05556 21-798): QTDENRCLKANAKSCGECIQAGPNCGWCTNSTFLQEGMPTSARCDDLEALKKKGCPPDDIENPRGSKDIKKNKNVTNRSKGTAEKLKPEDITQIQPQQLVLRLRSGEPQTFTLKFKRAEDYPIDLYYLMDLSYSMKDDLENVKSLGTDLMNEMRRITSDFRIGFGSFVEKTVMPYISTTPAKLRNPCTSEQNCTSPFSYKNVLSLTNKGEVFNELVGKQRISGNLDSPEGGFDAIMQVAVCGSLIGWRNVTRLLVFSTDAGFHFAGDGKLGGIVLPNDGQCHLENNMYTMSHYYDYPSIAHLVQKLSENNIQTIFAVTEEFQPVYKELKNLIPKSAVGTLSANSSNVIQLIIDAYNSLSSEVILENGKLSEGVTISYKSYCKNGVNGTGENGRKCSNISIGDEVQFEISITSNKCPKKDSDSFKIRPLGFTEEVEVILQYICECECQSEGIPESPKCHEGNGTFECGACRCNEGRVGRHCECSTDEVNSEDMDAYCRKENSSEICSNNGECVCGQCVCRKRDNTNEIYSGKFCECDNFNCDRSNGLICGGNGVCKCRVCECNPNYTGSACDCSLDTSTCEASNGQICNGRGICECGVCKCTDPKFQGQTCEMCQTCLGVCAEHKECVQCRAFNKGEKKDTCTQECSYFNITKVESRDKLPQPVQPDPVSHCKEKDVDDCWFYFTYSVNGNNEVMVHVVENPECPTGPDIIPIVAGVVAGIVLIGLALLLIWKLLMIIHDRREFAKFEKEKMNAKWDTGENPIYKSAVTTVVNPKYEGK
Experimental: (§1) • (1) Bel-7402 tumor cells and MCF-7 fusion cultured to 80% after the 24-well plate, trypsinized collected, washed with ice-cold PBS twice, the cells were labeled prior containing 1% BSA resuspended in PBS 30 min. • (2) 2 μl mouse anti-human ανβ3 function-blocking monoclonal antibody (1.0 μg/μl, 1:200), mouse anti-human 2 μl α5β1 function-blocking monoclonal antibody (1.0 μg/μl, 1:200) and the cell suspension were incubated at 4° C. 1.5 h. • (3) collected the labeled cells and washed with ice-cold PBS twice, followed by 100 μl FITC labeled polypeptide modified mPEG-SC20k-HM-3 (2 mg/ml) and the cell suspension were incubated at 4° C. incubate 1.5 h • (4) After labeled, the cells were collected and washed with ice-cold PBS 2 times, followed by resuspension with 400 μl PBS and analyzed by flow cytometry, and detected intensity of the FITC fluorescence through channel FL1.

integrin ανβ3 = biological target: T2, integrin ανβ3 (Homo sapiens, UniProt P05106+P06756); experiment: as above; type: binding; details: Bel-7402 and MCF-7 cells, 2 mg/ml, FIG. 1
T2 construct: Bel-7402 tumor cells and MCF-7 fusion cultured to 80%; endogenous in cells; host or cells: Bel-7402 and MCF-7 tumor cells
T2 sequence (P06756 31-889 limits assumed): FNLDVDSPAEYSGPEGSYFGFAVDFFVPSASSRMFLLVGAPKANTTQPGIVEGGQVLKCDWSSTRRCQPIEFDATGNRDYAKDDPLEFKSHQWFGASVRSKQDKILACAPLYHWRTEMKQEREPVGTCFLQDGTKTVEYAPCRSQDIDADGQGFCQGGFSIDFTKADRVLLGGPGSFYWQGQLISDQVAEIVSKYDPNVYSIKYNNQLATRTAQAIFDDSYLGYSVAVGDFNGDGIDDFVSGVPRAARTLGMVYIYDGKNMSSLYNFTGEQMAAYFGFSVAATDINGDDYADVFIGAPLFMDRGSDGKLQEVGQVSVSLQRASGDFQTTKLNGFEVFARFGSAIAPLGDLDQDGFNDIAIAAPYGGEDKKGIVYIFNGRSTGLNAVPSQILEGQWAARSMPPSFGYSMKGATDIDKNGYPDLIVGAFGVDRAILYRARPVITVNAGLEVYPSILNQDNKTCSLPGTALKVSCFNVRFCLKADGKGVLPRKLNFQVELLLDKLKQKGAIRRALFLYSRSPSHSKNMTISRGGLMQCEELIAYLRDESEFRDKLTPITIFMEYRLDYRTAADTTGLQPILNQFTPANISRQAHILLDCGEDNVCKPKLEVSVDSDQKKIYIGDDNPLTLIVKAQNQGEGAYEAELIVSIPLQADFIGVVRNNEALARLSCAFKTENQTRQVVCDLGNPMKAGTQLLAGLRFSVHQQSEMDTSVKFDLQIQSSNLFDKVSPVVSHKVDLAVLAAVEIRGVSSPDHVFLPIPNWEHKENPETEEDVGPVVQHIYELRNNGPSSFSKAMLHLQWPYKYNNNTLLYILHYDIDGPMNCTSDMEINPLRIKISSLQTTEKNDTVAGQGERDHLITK
T2 sequence (P06756 891-1048 partner limits assumed): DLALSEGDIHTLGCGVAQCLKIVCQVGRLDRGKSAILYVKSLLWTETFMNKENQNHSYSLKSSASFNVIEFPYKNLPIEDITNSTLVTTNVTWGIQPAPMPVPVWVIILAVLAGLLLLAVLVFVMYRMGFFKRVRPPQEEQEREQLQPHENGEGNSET
T2 sequence (P05106 27-788): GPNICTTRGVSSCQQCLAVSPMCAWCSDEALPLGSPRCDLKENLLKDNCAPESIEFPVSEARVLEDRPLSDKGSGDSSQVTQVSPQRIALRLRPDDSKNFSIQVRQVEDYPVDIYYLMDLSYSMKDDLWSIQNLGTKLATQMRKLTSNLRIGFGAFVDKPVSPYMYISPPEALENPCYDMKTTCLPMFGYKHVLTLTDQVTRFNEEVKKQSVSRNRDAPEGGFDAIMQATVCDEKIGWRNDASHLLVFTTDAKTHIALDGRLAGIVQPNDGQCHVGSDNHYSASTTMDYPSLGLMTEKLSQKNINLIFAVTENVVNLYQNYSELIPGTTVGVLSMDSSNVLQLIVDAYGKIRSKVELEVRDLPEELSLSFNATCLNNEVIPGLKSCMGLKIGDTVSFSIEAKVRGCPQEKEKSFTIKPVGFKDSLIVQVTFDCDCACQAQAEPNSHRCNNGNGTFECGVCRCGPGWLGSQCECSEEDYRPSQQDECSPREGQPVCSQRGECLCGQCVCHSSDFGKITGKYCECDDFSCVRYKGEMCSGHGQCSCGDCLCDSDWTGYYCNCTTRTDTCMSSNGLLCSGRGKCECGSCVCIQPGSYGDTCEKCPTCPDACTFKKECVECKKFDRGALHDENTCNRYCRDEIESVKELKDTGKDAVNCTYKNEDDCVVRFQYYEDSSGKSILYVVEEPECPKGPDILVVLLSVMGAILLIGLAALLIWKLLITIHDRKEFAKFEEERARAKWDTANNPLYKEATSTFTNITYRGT
Experimental: as §1

[6] = test system: human nasopharyngeal cancer CNE xenograft tumors; experiment: Tumor growth inhibition, CNE xenograft; details: for Rate of inhibiting tumors / Tumor weight: Once 3 days
Experimental: (§2) Picked the tumor tissue of vigorous growth and was cut into pieces of about 1.5 mm^3. Under sterile conditions, the tumor tissue was inoculated subcutaneously on the right of nude mice. Tumor diameter was measured with a vernier caliper. The animals which had tumors with a size of 100-200 mm^3 were randomly divided into groups. The effect of polypeptide on anti-tumor was dynamically observed through the method of measuring tumor diameter. The times of measuring tumor diameter were once 2 days, and meantime, weighed mice. The mice in experimental group were infused polypeptide through tail vein, once 3 days. The mice in the placebo group were injected saline with the same volume. Tumor volume formula:
a, b respectively represent the length and width. According to the result of measurement, calculate the relative tumor volume. Evaluation of antitumor activity is relative tumor proliferation rate T/C(%). The formula is as follows: T/C(%)^−TRTV/CRTV×100%

[7] = test system: human gastric cancer MGC803 xenograft tumors; experiment: Tumor growth inhibition, MGC803 xenograft; details: for Rate of inhibiting tumors / Tumor weight: Once 3 days
Experimental: as §2
(§3) a, b respectively represent the length and width. According to the result of measurement, calculate the relative tumor volume. Evaluation of antitumor activity is relative tumor proliferation rate T/C(%). The formula is as follows: T/C(%)^=TRTV/CRTV×100%
(§4) TRTV: Treatment group RTV; CRTV: negative control group RTV

[8] = Pharmacokinetics of mPEG-SC20k-HM-3 and HM-3 in rats (plasma concentration by ELISA); details: SD rats, intravenous
Experimental: SD rats were randomly divided into six groups with the same number for male and female. Take three groups were administered intravenously integrin antagonist polypeptide with a high dose of 52 mg/kg (equivalent to HM-3 4.2 mg/kg), an intermediate dose of 26 mg/kg (equivalent to HM-3 2.1 mg/kg), a low-dose of 13 mg/kg (equivalent to HM-3 1.05 mg/kg). The other 3 groups were injected HM-3 with a high dose of 4.2 mg/kg, an intermediate dose of 2.1 mg/kg, a low doses of 1.05 mg/kg. Collected whole blood 0.5 ml once from the orbital venous plexus after 0.5 h, 1 h, 2 h, 3 h, 6 h, 12 h, 24 h, 48 h, 72 h, 96 h, 108 h, 132 h of drug administration, and applied heparin to get the effect of anti-coagulation. 12000 rpm/2 min centrifuged plasma. Draw supernatant 200 μl and 80° C. preheated PBS (0.05 M pH7.4) buffer 600 μl and mixed. Bath in the 80° C. water for 30 min. Centrifuged 2 min at 12000 rpm, and collected the supernatant, and stored in the condition of −20° C. Dissolved at room temperature, measured integrin antagonist peptide plasma concentration by ELISA.

[9] = test system: human colon cancer HT-29 xenograft tumors; experiment: Tumor growth inhibition, HT-29 xenograft; details: for Rate of inhibiting tumors / Tumor weight: Once 3 days
Experimental: Human colon cancer HT-29 cell lines in logarithmic growth phase were picked, and made into 5×10^7/ml cell suspension of under sterile conditions, and then 0.1 ml suspension was inoculated subcutaneously at the right armpit of nude mice. Tumor diameter was measured with a vernier caliper. The animals which had tumors with a size of 100-200 mm^3 were randomly divided into groups. The effect of polypeptide on anti-tumor was dynamically observed through the method of measuring tumor diameter. The times of measuring tumor diameter were once 2 days, and meantime, weighed mice. The mice in experimental group were infused polypeptide through tail vein. The mice in the placebo group were injected saline with the same volume, once 1 day; Taxol group: 10 mg/kg, once 1 week; Endostar group: 2.5 mg/kg, once 1 day; The groups of high, intermediate and low polypeptide: 6, 3, 1.5 mg/kg, respectively, once 1 day. After administration, all mice were sacrificed. Stripped the tumors and weighed.

[10] = test system: human breast cancer MDA-MB-231 xenograft tumors; experiment: Tumor growth inhibition, MDA-MB-231 xenograft; details: for Rate of inhibiting tumors / Tumor weight: Once 3 days
Experimental: Picked the tumor tissue of vigorous growth and was cut into pieces of about 1.5 mm^3. Under sterile conditions, the tumor tissue was inoculated subcutaneously on the right of nude mice. Tumor diameter was measured with a vernier caliper. The animals which had tumors with a size of 100-200 mm^3 were randomly divided into groups. The effect of polypeptide on anti-tumor was dynamically observed through the method of measuring tumor diameter. The times of measuring tumor diameter were once 2 days, and meantime, weighed mice. The mice in experimental group were infused polypeptide through tail vein, once 3 days. The mice in the placebo group were injected saline with the same volume. Tumor volume formula: TV=0.52×a×b^2
as §3, §4

[11] = test system: human pancreatic cancer SW-1990 xenograft tumors; experiment: Tumor growth inhibition, SW-1990 xenograft; details: for Rate of inhibiting tumors / Tumor weight: Once 3 days
Experimental: Picked the tumor tissue of vigorous growth and was cut into pieces of about 1.5 mm^3. Under sterile conditions, the tumor tissue was inoculated subcutaneously on the right of nude mice. Tumor diameter was measured with a Vernier caliper. The animals which had tumors with a size of 100-200 mm^3 were randomly divided into groups. The effect of polypeptide on anti-tumor was dynamically observed through the method of measuring tumor diameter. The times of measuring tumor diameter were once 2 days, and meantime, weighed mice. The mice in experimental group were infused polypeptide through tail vein, once 3 days. The mice in the placebo group were injected saline with the same volume.
as §3
TRTV:Treatment group RTV; CRTV: negative control group RTV

[12] = high, 36.7 mg/kg, listed as polypeptide
[13] = intermediate, 18.75 mg/kg, listed as polypeptide
[14] = low, 9.38 mg/kg, listed as polypeptide

## mPEG-SC20k-Ile-Val-Arg-Arg-Ala-Asp-Arg-Ala-Ala-Val-Pro-Gly-Gly-Gly-Gly-Arg-Gly-Asp ({mPEG‑SC20k}-IVRRADRAAVPGGGGRGD) [mPEG-SC20k-HM-3]
[1]; 36.7 mg/kg, P<0.05
  inhibition of tumor growth compared with negative control: significant inhibition role
[1]; high, 36.7 mg/kg
  Rate of inhibiting tumors: 60.20%*
  Tumor weight: 0.802 g
[1]; [12]
  Rate of inhibiting tumors: 60.20%
[1]; intermediate, 18.75 mg/kg
  Rate of inhibiting tumors: 51.32%
  Tumor weight: 0.981 g
[1]; [13]
  Rate of inhibiting tumors: 51.32%
[1]; low, 9.38 mg/kg
  Rate of inhibiting tumors: 50.99%
  Tumor weight: 0.988 g
[1]; [14]
  Rate of inhibiting tumors: 50.99%
[2]; 36.7 mg/kg, P<0.05
  inhibition of tumor growth compared with negative control: significant inhibition role
[2]; high, 36.7 mg/kg
  Rate of inhibiting tumors: 61.45%*
  Tumor weight: 0.409 g
[2]; [12]
  Rate of inhibiting tumors: 61.45%
[2]; intermediate, 18.75 mg/kg
  Rate of inhibiting tumors: 50.59%
  Tumor weight: 0.524 g
[2]; [13]
  Rate of inhibiting tumors: 50.59%
[2]; low, 9.38 mg/kg
  Rate of inhibiting tumors: 40.32%
  Tumor weight: 0.633 g
[2]; [14]
  Rate of inhibiting tumors: 40.32%
[3]; Once 3 days
  Rate of inhibiting tumors: 65.04%*
  Tumor weight: 0.678 g
[3]; Once 3 days, listed as polypeptide
  Rate of inhibiting tumors: 65.04%
[3]; P<0.05
  inhibition of tumor growth compared with negative control: significant inhibition role
[4]; 36.7 mg/kg, P<0.05
  inhibition of tumor growth compared with negative control: significant inhibition role
[4]; high, 36.7 mg/kg
  Rate of inhibiting tumors: 77.46%*
  Tumor weight: 0.417 g
[4]; [12]
  Rate of inhibiting tumors: 77.46%
[4]; intermediate, 18.75 mg/kg
  Rate of inhibiting tumors: 67.48%
  Tumor weight: 0.603 g
[4]; [13]
  Rate of inhibiting tumors: 67.48%
[4]; low, 9.38 mg/kg
  Rate of inhibiting tumors: 57.87%
  Tumor weight: 0.781 g
[4]; [14]
  Rate of inhibiting tumors: 57.87%
[5]; 36.7 mg/kg, P<0.05
  inhibition of tumor growth compared with negative control: significant inhibition role
[5]; high, 36.7 mg/kg
  Rate of inhibiting tumors: 62.24%*
  Tumor weight: 0.183 g
[5]; [12]
  Rate of inhibiting tumors: 62.24%
[5]; intermediate, 18.75 mg/kg
  Rate of inhibiting tumors: 55.66%
  Tumor weight: 0.318 g
[5]; [13]
  Rate of inhibiting tumors: 55.66%
[5]; low, 9.38 mg/kg
  Rate of inhibiting tumors: 50.16%
  Tumor weight: 0.406 g
[5]; [14]
  Rate of inhibiting tumors: 50.16%
Integrin α5β1
  binding to integrin α5β1: able to bind
Integrin ανβ3
  binding to integrin ανβ3: able to bind
[6]; 36.7 mg/kg, P<0.05
  inhibition of tumor growth compared with negative control: significant inhibition role
[6]; 36.7 mg/kg, compared with positive cisplatin group
  toxic and side effects: no obvious toxic and side effects
[6]; high, 36.7 mg/kg
  Rate of inhibiting tumors: 68.22%*
  Tumor weight: 0.382 g
[6]; [12]
  Rate of inhibiting tumors: 68.22%
[6]; intermediate, 18.75 mg/kg
  Rate of inhibiting tumors: 66.19%
  Tumor weight: 0.406 g
[6]; low, 9.38 mg/kg
  Rate of inhibiting tumors: 55.32%
  Tumor weight: 0.537 g
[6]; [14]
  Rate of inhibiting tumors: 55.32%
[7]; 36.7 mg/kg, P<0.05
  inhibition of tumor growth compared with negative control: significant inhibition role
[7]; high, 36.7 mg/kg
  Rate of inhibiting tumors: 73.42%*
  Tumor weight: 0.192 g
[7]; [12]
  Rate of inhibiting tumors: 73.42%
[7]; intermediate, 18.75 mg/kg
  Rate of inhibiting tumors: 69.86%
  Tumor weight: 0.218 g
[7]; [13]
  Rate of inhibiting tumors: 69.86%
[7]; low, 9.38 mg/kg
  Rate of inhibiting tumors: 59.57%
  Tumor weight: 0.292 g
[7]; [14]
  Rate of inhibiting tumors: 59.57%
[8]
  CL: 7.1 mL/h/kg
[9]; 36.7 mg/kg, P<0.05
  inhibition of tumor growth compared with negative control: significant inhibition role
[9]; high, 36.7 mg/kg
  Rate of inhibiting tumors: 55.98%*
  Tumor weight: 0.493 g
[9]; [12]
  Rate of inhibiting tumors: 55.98%
[9]; intermediate, 18.75 mg/kg
  Rate of inhibiting tumors: 45.45%
  Tumor weight: 0.611 g
[9]; [13]
  Rate of inhibiting tumors: 45.45%
[9]; low, 9.38 mg/kg
  Rate of inhibiting tumors: 37.05%
  Tumor weight: 0.705 g
[9]; [14]
  Rate of inhibiting tumors: 37.05%
[10]; 36.7 mg/kg, P<0.05
  inhibition of tumor growth compared with negative control: significant inhibition role
[10]; high, 36.7 mg/kg
  Rate of inhibiting tumors: 63.05%*
  Tumor weight: 0.459 g
[10]; [12]
  Rate of inhibiting tumors: 63.05%
[10]; intermediate, 18.75 mg/kg
  Rate of inhibiting tumors: 59.11%
  Tumor weight: 0.508 g
[10]; [13]
  Rate of inhibiting tumors: 59.11%
[10]; low, 9.38 mg/kg
  Rate of inhibiting tumors: 51.01%
  Tumor weight: 0.609 g
[10]; [14]
  Rate of inhibiting tumors: 51.01%
[11]; 36.7 mg/kg, P<0.05
  inhibition of tumor growth compared with negative control: significant inhibition role
[11]; high, 36.7 mg/kg
  Rate of inhibiting tumors: 67.76%*
  Tumor weight: 0.446 g
[11]; [12]
  Rate of inhibiting tumors: 67.76%
[11]; intermediate, 18.75 mg/kg
  Rate of inhibiting tumors: 64.55%
  Tumor weight: 0.491 g
[11]; [13]
  Rate of inhibiting tumors: 64.55%
[11]; low, 9.38 mg/kg
  Rate of inhibiting tumors: 50.40%
  Tumor weight: 0.687 g
[11]; [14]
  Rate of inhibiting tumors: 50.40%

Reference: patent US20170100489A1, “POLYETHYLENE GLYCOL-MODIFIED INTEGRIN BLOCKER HM-3 AND USE THEREOF” (HANMEI XU, priority 2012, published 2017)
